One series concerns the target T1, TAOK1 (Homo sapiens, UniProt Q7L7X3).
T1 construct: purchased Reaction Biology Corporation (Kinase HotSpot)
Put plainly: Kinase Hotspot radiolabel assay. It is filed as biochemical. The note with it: read-out: % Residual Activity.

Another series has as its target T2, GLK (Homo sapiens, UniProt Q8IVH8).
T2 construct: purchased Reaction Biology Corporation (contract assay)
Put plainly: Ki determination for kinases with greater than 90% inhibition (Reaction Biology). The settings on record: calculated from IC50 using the Cheng-Prusoff equation. It is filed as biochemical. Here is the method: (§1) Kinase assay. The ADP Glo^TM kinase assay (Promega, Madison, WI, USA) was used to assess the inhibition by CDDD11-8 of CDKs 1, 2, 4, 6, 7, and 9, as well as the mutant isoforms of FLT3. The assays were performed in accord with the manufacturer’s protocol (Promega) as described previously. Briefly, serial three-fold dilutions of CDDD11-8 were prepared in 100% DMSO from a 2 mM stock solution, followed by 1:40 dilution into Milli-Q water. Subsequently, 1 µL of each sample was incubated with 4 µL of kinase mixture containing a particular CDK enzyme and its substrate, standard kinase buffer [3 mM MgCl2, 50 mM HEPES-NaOH pH 7.5, 3 mM MnCl2, 3 µM Na-orthovanadate, 1 mM dithiothreitol (DTT)], kinase dilution buffer (containing 0.25 mg/mL PEG20,000, 50 mM HEPES-NaOH pH 7.5, 1 mM DTT), and ATP at 37 °C for 30 to 40 min. The final reaction mixture contained 0.5% DMSO in all samples, and the applied kinase concentrations were 1, 1, 10, 40, 20, and 50 nM for CDK1, 2, 4, 6, 7, and 9, respectively. The reaction was stopped by adding ADP-Glo reagent and the mixture was incubated further in the dark at room temperature for 40 min. As a final step, kinase detection reagent was added to each mixture and incubated at room temperature for 30 to 60 min. Luminescence was read using an EnVision® multilabel plate reader (PerkinElmer, Beaconsfield, UK), and half-maximum inhibitory concentrations (IC50) were calculated using a non-linear regression model with a variable slope, plotting log (inhibitor concentration) vs. response using the following formula: Ar%=Bottom+Top−Bottom/1+Inhibitor Concentration/IC50^HillSlope where the relative activity Ar (%) is the signal relative to the controls, IC50 is the half maximum concentration, Hillslope is the steepness of the dose-response curve, Top and Bottom are plateaus reflecting the maximum and minimum in responses on the Y-axis (GraphPad Prism version 7, San Diego, CA, USA). Ki values were calculated from the IC50 using the Cheng−Prusoff equation [32]. Extensive specificity assessment was carried out by Reaction Biology Corporation (Malvern, PA, USA) with 369 kinases using 1 µM CDDD11-8 concentration in a Kinase Hotspot radiolabel assay (for experimental details, please see (Reaction Biology https://www.reactionbiology.com/). Subsequently, Ki values were determined for kinases with greater than 90% inhibition.

In the next series the target is T3, MINK (Homo sapiens, UniProt Q8N4C8).
T3 construct: purchased Reaction Biology Corporation (contract assay)
Described as above. The note with it: calculated from IC50 using the Cheng-Prusoff equation. It is filed as biochemical. The protocol:
as §1

A further series has as its target T4, NUAK1 (Homo sapiens, UniProt O60285).
T4 construct: purchased Reaction Biology Corporation (contract assay)
The series is described as above. It is filed as biochemical. The note with it: calculated from IC50 using the Cheng-Prusoff equation. Here is the method: as §1

The target in the next series is T5, TRKC (Homo sapiens, UniProt Q16288).
T5 construct: purchased Reaction Biology Corporation (contract assay)
The description is as above. The settings on record: calculated from IC50 using the Cheng-Prusoff equation. It is filed as biochemical. The protocol:
as §1

The subject of series [1] is other members of the CDK family. Put plainly: ADP Glo kinase assay, CDK selectivity. The note with it: ratio of potency. It is filed as biochemical, human. The protocol: Kinase assay. The ADP Glo^TM kinase assay (Promega, Madison, WI, USA) was used to assess the inhibition by CDDD11-8 of CDKs 1, 2, 4, 6, 7, and 9, as well as the mutant isoforms of FLT3. The assays were performed in accord with the manufacturer’s protocol (Promega) as described previously. Briefly, serial three-fold dilutions of CDDD11-8 were prepared in 100% DMSO from a 2 mM stock solution, followed by 1:40 dilution into Milli-Q water. […] Luminescence was read using an EnVision® multilabel plate reader (PerkinElmer, Beaconsfield, UK), and half-maximum inhibitory concentrations (IC50) were calculated using a non-linear regression model with a variable slope, plotting log (inhibitor concentration) vs. response using the following formula: Ar%=Bottom+Top−Bottom/1+Inhibitor Concentration/IC50^HillSlope where the relative activity Ar (%) is the signal relative to the controls, IC50 is the half maximum concentration, Hillslope is the steepness of the dose-response curve, Top and Bottom are plateaus reflecting the maximum and minimum in responses on the Y-axis (GraphPad Prism version 7, San Diego, CA, USA). Ki values were calculated from the IC50 using the Cheng−Prusoff equation [32]. […]
For orientation: ADP-Glo turns the ADP formed in a reaction into a luminescent signal.

In the next series the test system is MOLM-13 cells. The series can be described thus: Detection of apoptosis (annexin V/PI assay). It is filed as cell-based. The settings on record: MOLM-13, 1 µM. The protocol:
(§2) Detection of apoptosis and cell cycle analysis. Detection of apoptosis and cell cycle analysis were performed as described previously. Cells (1 × 10^5 cells/mL) were seeded into a six-well plate (Corning) and incubated overnight at 37 °C, 5% CO2 prior to incubation with different concentrations of CDDD11-8 or control (0.1% final DMSO concentration) for 6, 24, or 72 h. For washout experiments, cells were incubated with compounds for 6 h, then washed three times with 1 × PBS interspersed with centrifugation at 300× g for 5 min to remove compound. After incubation at 37 °C under 5% CO2, cells were centrifuged at 300× g for 5 min to form a pellet, washed with PBS, and incubated with Annexin V/PI (Becton Dickenson, Franklin Lakes, NJ, USA) for 15 min in the dark. For cell cycle analysis, cells were fixed with 70% ethanol (v/v, 4 °C) and incubated in the dark with cell cycle staining solution (50 µg/mL PI, 0.1 mg/mL RNase A, 0.05% Triton X-100) for 1.5 h. Samples were analyzed using a CytoFlex flow cytometer (Beckman Coulter, Brea, CA, USA). Data were analyzed with CytExpert software version 2.1 (Beckman Coulter, Brea, CA, USA).

In the next series the test system is MV4-11 cells. The series can be described thus: Detection of apoptosis (annexin V/PI assay). It is filed as cell-based. The note with it: MV4-11, 1 µM. Here is the method: as §2
The next series deals with THP-1 cells. Put plainly: Detection of apoptosis (annexin V/PI assay). It is filed as cell-based. The settings on record: apoptosis seen at 1.5 µM and 24 and 72 h. The protocol: as §2
Series [2] is described as follows: Partition coefficient by shake flask assay. It is filed as physicochemical. The settings on record: octanol/aqueous phase, pH 7.4, read-out: Partition Coefficient LogD7.4 (octanol).
Another series can be described thus: Blood to plasma ratio. The note with it: mouse, in mice. It is filed as in vitro ADME.

pKi: −log10 of the molar value.

T1 sequence (Q7L7X3 whole entry): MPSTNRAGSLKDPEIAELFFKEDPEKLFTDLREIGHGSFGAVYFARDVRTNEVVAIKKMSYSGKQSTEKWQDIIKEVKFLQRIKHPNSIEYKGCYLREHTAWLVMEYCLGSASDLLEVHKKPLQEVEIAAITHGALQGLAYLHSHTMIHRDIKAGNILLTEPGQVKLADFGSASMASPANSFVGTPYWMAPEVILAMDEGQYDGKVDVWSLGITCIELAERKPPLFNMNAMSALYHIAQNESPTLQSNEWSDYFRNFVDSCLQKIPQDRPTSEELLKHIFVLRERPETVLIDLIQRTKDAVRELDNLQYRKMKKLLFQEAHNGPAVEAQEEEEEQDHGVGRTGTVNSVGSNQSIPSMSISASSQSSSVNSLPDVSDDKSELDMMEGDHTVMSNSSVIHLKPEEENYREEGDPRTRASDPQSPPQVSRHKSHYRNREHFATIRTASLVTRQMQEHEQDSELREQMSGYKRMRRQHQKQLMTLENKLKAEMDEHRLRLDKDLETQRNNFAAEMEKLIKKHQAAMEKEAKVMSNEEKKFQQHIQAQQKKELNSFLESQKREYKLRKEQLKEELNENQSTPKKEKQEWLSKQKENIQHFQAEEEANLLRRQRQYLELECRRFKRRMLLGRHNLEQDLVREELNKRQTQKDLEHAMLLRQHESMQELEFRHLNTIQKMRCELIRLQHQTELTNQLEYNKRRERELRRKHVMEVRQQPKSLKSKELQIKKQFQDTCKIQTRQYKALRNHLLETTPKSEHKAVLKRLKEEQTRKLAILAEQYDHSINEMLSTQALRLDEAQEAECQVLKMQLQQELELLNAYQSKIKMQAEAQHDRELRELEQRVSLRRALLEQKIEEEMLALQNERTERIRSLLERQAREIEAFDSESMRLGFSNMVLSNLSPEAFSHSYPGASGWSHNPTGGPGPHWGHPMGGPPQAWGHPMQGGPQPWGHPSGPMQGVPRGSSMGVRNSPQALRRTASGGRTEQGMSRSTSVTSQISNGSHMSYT
T5 sequence (Q16288 32-839): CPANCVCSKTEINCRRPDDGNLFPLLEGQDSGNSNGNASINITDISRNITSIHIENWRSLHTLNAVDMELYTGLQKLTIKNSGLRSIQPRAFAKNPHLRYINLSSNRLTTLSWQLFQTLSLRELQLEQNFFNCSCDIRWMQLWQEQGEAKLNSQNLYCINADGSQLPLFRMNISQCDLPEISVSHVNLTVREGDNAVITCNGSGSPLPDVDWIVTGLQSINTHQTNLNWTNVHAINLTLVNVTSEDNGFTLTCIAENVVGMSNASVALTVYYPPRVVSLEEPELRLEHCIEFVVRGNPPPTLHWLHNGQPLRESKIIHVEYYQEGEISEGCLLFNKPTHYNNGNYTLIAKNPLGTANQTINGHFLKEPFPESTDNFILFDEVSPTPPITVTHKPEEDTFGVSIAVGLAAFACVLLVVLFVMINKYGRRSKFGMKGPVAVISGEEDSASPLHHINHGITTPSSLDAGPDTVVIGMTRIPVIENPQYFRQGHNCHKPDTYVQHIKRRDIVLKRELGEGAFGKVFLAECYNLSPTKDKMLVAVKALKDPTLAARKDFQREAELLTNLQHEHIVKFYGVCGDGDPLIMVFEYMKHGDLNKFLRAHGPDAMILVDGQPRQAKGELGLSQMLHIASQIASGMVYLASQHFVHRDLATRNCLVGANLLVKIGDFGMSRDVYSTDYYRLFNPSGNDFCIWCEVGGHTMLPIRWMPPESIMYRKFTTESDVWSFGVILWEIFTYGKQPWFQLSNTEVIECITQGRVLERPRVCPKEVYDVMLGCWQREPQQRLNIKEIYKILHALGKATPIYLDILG
T4 sequence (O60285 whole entry): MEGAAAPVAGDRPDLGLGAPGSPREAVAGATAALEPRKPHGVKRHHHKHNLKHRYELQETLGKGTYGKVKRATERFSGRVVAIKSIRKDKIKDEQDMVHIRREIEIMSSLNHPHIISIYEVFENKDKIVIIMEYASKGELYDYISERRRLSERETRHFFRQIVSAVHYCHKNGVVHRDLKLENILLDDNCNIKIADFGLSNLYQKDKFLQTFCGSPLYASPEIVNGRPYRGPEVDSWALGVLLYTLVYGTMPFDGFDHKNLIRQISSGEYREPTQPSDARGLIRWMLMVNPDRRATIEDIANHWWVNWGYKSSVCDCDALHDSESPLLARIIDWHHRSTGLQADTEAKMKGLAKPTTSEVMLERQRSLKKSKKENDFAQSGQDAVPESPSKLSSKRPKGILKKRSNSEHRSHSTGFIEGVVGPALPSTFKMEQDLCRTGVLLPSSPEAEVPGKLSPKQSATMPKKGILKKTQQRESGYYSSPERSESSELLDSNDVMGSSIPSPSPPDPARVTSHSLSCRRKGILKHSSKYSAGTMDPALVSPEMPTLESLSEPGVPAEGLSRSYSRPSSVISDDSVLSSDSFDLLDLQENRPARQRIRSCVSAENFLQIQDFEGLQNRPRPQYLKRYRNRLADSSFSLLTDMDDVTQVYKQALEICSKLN
T2 sequence (Q8IVH8 whole entry): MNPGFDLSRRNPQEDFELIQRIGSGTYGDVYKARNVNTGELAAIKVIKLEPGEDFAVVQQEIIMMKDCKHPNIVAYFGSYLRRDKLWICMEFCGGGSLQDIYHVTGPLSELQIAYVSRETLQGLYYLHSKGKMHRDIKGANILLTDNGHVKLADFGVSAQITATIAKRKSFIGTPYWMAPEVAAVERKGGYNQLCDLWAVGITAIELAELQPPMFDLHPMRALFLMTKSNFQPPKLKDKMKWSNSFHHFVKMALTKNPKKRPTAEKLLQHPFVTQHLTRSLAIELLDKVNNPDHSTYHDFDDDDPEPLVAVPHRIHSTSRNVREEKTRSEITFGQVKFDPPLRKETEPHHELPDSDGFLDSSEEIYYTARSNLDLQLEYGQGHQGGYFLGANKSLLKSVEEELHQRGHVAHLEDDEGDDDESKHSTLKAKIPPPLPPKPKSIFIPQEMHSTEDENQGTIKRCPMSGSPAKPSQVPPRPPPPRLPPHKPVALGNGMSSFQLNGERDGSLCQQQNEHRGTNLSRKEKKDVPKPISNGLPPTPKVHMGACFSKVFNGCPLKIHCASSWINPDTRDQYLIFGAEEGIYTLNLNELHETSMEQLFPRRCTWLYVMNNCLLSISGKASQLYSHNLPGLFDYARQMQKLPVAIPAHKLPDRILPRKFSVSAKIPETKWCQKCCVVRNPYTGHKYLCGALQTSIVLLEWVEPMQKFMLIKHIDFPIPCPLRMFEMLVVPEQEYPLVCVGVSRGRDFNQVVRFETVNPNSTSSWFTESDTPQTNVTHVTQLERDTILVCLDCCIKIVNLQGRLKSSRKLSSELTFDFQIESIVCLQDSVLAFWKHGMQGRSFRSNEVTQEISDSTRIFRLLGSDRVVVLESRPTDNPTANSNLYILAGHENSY
T3 sequence (Q8N4C8 whole entry): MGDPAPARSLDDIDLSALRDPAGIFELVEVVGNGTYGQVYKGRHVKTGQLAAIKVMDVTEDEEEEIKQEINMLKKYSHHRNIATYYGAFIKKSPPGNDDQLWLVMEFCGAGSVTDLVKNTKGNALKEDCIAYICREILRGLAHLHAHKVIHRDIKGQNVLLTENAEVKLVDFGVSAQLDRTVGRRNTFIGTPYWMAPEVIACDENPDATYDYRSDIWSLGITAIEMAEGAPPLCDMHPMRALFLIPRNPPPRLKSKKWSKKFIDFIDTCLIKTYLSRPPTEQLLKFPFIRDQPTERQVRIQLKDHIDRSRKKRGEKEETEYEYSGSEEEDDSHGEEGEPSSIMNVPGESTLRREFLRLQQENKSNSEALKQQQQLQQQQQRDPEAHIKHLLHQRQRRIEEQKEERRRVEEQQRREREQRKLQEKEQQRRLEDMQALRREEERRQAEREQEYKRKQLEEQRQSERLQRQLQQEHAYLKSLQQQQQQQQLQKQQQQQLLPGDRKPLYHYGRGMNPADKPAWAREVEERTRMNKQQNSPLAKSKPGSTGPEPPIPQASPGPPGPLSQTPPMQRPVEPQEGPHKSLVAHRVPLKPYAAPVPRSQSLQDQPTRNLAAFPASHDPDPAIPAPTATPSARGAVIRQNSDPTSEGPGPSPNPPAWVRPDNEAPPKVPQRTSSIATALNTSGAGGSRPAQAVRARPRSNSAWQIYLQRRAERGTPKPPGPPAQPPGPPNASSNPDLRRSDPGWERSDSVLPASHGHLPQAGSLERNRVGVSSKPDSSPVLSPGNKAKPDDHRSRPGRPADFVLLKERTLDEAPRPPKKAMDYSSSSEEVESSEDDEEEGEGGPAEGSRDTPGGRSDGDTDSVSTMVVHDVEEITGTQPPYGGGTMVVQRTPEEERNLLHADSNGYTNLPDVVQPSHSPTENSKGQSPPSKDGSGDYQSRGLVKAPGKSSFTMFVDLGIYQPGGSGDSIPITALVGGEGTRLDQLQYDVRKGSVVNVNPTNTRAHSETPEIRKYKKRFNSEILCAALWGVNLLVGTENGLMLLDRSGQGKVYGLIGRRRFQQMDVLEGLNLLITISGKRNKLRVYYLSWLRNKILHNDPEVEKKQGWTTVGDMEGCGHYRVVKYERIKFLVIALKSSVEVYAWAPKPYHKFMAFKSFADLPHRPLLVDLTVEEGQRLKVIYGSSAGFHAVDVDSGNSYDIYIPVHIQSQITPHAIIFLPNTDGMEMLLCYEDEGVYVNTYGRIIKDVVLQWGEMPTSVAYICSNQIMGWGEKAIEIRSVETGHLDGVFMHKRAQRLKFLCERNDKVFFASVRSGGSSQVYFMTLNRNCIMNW

Broadly, the pKi is −log10 of the Ki, conventionally taken in molar units. For the compound `Cc1cnc(N[C@H]2CC[C@H](N)CC2)nc1-c1cnc2ccc(-c3ccccc3)cn12` [CDDD11-8], the remaining activity at 1 µM at TAOK1 is 45.5%. The pKi on GLK is 7.55; on MINK, 7.85; at NUAK1, 7.92; on TRKC, 8.00. In addition, the “selectivity for CDK9 over other members of the CDK family” value in series [1] was greater than 50 fold. Also, the “apoptotic (Annexin V-positive) cells” value stood at 86% in the series on MOLM-13 cells (6 h) and 51% in the series with MV4-11 cells (6 h). Moreover, the “apoptotic cells after washout” value in the series with MOLM-13 cells (6 h then 24 h without compound) is reported as 61%; with MV4-11 cells (6 h then 24 h without compound), 28%. Besides, the induction of apoptosis entry in the series with THP-1 cells is “less impact”. Besides, the logD in series [2] was 1.87. In addition, the blood plasma ratio in the series “Blood to plasma ratio” came to 0.71.

(Values after publication PMC8909834, “An Orally Bioavailable and Highly Efficacious Inhibitor of CDK9/FLT3 for the Treatment of Acute Myeloid Leukemia” (Cancers, 2022).)
